Measurements reported in patent US8158811B2, “Unsaturated fatty hydroxy acid derivatives and the dermocosmetologic use thereof” (Pierre Fabre Dermo-Cosmetique, priority 2005, dated 2012).

Test system: murine melanome cell line B16-F10
Assay: melanin synthesis, colorimetric assay, basal and after α-MSH
Format: cell-based
Conditions: basal situation, 30 μg/ml
Experimental: The modulating effect of unsaturated fatty hydroxy acid derivatives on melanogenesis was analysed. To do this, measurement of melanin synthesis by colorimetric assay was performed on a murine melanome cell line: line B16-F10.
The effect of products was investigated in a basal situation and after stimulation by α-MSH in order to determine depigmenting capacity.
Levels of extracellular and intracellular melanin were measured by spectrophotometry at a wavelength of 405 nm according to the protocol described by Anob et al., 1999. The amount of pigment was determined using a standard melanin range and analysis on Microwin software (Berthold Biotechnologies). A total protein assay was carried out for intracellular melanin samples by means of the BCA-Copper method at 540 nm. The standard range was made up using standard protein BSA (Bovine Serum Albumin).

O=C(O)/C=C/CCCCCCCCCCCO [n=10, R=H, Rn=H, R1=H, 14-hydroxy-tetradec-2t-enoic acid] was tested, and the “inhibition of melanin synthesis” value was 15%.
